Source: US20130338183A1, “COMPOSITIONS AND METHODS FOR MOBILIZING STEM CELLS” (The Johns Hopkins University, priority 2010, published 2013)

System: Lin-CD133+ cells in peripheral blood
Assay: Mobilization of bone marrow stem cells: Lin-CD133+ cells in peripheral blood by CBC and flow cytometry after subcutaneous injection
Format: in vivo
Details: low dose FK-506 (0.05 mg/kg, 0.1 mg/kg) subcutaneous, 3 hours after injection, Lewis rats
Source text: Rat Strains and Care. Lewis (RT1^1) rats were purchased from Harlan ague-Dawley (Indianapolis, Ind.) and used at 8-10 weeks of age. Animals were maintained in the specific pathogen-free facility of Johns Hopkins Medical Institutions. Animals were cared for according to NIH guidelines and under a protocol approved by the Johns Hopkins University Animal Care Committee.
Experimental Groups and Animal Treatment. Lewis rats were divided by six groups including control group (treated with same volume of saline) and low dose of FK-506 (0.05 mg, 0.1 mg or 1.0 mg/kg). FK506 was injected subcutaneously. Animals were sacrificed at 3 hours after injection. Spleen and peripheral blood were collected. Blood cell count was performed in animal pathology laboratory at Johns Hopkins.
Flow Cytometry. Single-cell suspensions (5×10^5) of peripheral blood monocytes were analyzed for lineage negative and CD133 expression. Nonspecific antibody binding was blocked with goat and rat serum (Sigma) for 30 minutes.
In this study, lineage negative (Lin−) CD133+ stem cell population in peripheral blood and spleen were quantified after FK-506 treatment. Complete blood count (CBC) was measured and stem cell markers were quantified by flow cytometry. The absolute number of stem cells was calculated as WBC (−thous./uL)×% of stem cells.

Question: `C=CC[C@@H]1/C=C(\C)C[C@H](C)C[C@H](OC)[C@H]2O[C@@](O)(C(=O)C(=O)N3CCCC[C@H]3C(=O)O[C@H](/C(C)=C/[C@@H]3CC[C@@H](O)[C@H](OC)C3)[C@H](C)[C@@H](O)CC1=O)[C@H](C)C[C@@H]2OC` [FK-506, Tacrolimus] was tested. Which “increase of absolute number of Lin-CD133+ cells in peripheral blood compared to saline treated animals” value did it give?
Answer: The value was “about 3 times”.
